We go through eight molecules from US7049445B2, “Bicyclic compounds” (Asahi Kasei Pharma Corporation, priority 2000, dated 2006).

The structures appear in SMILES notation. Counter-ions that a name gives are not always drawn.

For one data set, the target named is T1, human β3 (Homo sapiens, UniProt P13945).
T1 construct: used as a probe to obtain the full length human β3 gene from a human genomic library; expressed in transfected cells; host or cells: CHO (Chinese hamster ovary) cells, pcDNA3 vector
The data set can be described thus: Human β3-agonist activities (cAMP in transfected CHO cells). The format is cell-based. Conditions: CHO cells transfected with human β3 gene; for EC50: cAMP quantitated by EIA after 30 minutes; for Emax: read-out: Intrinsic activity* (relative activities as compared with isoproterenol). Here is the method:
Human β3-agonist activities were determined using CHO (Chinese hamster ovary) cells transfected with pcDNA3 (mfd. by Invitrogen) to which human β3 gene had been inserted. Human β3 fragment was first obtained from human adipose tissue cDNA (mfd. by Clonetech) by PCR using the primer of β3 (Krief, et al., J. Clin. Invest., vol. 91, pp. 344-349 (1993)). The human β3 fragment thus obtained was used as a probe to obtain the full length human β3 gene from a human genomic library (mfd. by Clonetech). The above cells were cultured in a Ham F-12 medium supplemented with 10% fetal bovine serum, 400 μg/mL geneticin (Gibco BRL), 100 U/mL penicillin and 100 μg/mL streptomycin. After placing these cells (5×10^5) into a 6-well plate and culturing them for 24 hours, they were allowed to stand on a serum-free Ham F-12 medium for 2 hours. The compound was first dissolved in DMSO, diluted to a concentration of 10^−6 M with Ham F-12 supplemented with 1 mM isobutylmethylxanthine and 1 mM ascorbic acid, and then added to the cells. After the cells were cultured for 30 minutes, the medium was removed, followed by addition of 0.5 mL of 1 N NaOH. The medium was allowed to stand for 20 minutes and then 0.5 mL of 1 N acetic acid was added to the medium. The medium was stirred and centrifuged, followed by quantitating cAMP with cAMP EIA kit (mfd. by Cayman). With respect to eight compounds among the compounds described in Examples, their relative activities (%) as compared with isoproterenol were indicated in Table 3. Isoproterenol was purchased from RBI (Research Biochemicals International). The results from Table 3 indicate that the compounds of the present invention have human β3-agonist activities.

The test system of the next data set is male ddy mice. The data set can be described thus: Toxicity test. The format is in vivo. Conditions: orally administered to 6-week old male ddy mice at 100 mg/kg.
For data set [1], the system named is transgenic mouse expressing human β3. The data set can be described thus: Thermogenesis in transgenic mouse expressing human β3. Format: in vivo. To be noted: orally administered to transgenic mice, 3 to 10 mg/kg. The source says:
Ito, et al. prepared a replacement mouse expressing human β3 in its brown fat by introducing human β3 gene into a mouse whose mouse β3 gene had been knocked out (Ito, et al., Diabetes, vol. 47, pp. 1464-1471 (1998)). A compound of the present invention can be tested for antiobestic activity and antidiabetic activity using a transgenic mouse according to the following procedures.
The thermogenesis can be measured with OXYMAX System (Columbus) according to the method reported by Largis et al. (Drug Development Research, vol. 32, pp. 69-76 (1994)). According to this device, the amount of thermogenesis can be obtained by calculating the calories based on the amount of oxygen consumed and the amount of carbon dioxide generated. After the administration of a medicinal substance, the measurements are carried out for 120 minutes (15 points). The average of the measured values obtained for the latter […] (10 points) is converted into a value per body weight to give the amount of thermogenesis. When a test by repetitive administrations is carried out, a medicinal substance may be administered at a dose once daily, twice daily or the like. The duration of administration may be 1 week, 2 weeks or more. In a test by repetitive administrations, body weight, blood glucose level and insulin level can be monitored with the passage of time as the method of Largis et al. (Drug Development Research, vol. 32, pp. 69-76 (1994). It is also possible that after the completion of the administration, the animal is anatomized to measure the weight of fat tissue or to prepare a section followed by a microscopic examination. Further, the expression level of UCP-1 can be examined according to the method reported by Nagase et al. (J. Clin. Invest., vol. 97, pp. 2898-2904 (1996)).
The present compounds were orally administered to transgenic mice in an amount of from 3 to 10 mg/kg to measure their thermogenesis.

[2] abbreviates: cAMP, relative to isoproterenol.

T1 sequence (P13945 whole entry): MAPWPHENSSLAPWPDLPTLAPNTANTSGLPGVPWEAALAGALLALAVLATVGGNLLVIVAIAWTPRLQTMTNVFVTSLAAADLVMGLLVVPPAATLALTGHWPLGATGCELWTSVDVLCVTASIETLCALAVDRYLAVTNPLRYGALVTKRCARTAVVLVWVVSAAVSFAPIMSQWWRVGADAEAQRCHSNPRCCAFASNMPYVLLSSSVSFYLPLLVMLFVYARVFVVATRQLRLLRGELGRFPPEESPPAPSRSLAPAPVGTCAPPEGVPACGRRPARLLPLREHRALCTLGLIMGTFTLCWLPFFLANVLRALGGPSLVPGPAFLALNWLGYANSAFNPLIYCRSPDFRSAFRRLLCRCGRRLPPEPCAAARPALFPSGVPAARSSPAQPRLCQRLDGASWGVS

For the molecule `CNS(=O)(=O)c1cc(C(O)CNCCOc2ccc3c(C)c(C)[nH]c3c2)ccc1O.O=C(O)C(F)(F)F` (stereo not shown) [Example 9, N-methyl-[5-[2-[2-(2,3-dimethyl-1H-indol-6-yloxy)ethylamino]-1-hydroxyethyl]-2-hydroxy]benzenesulfonamide trifluoroacetate], at human β3, the response was half-maximal at 16 nM (EC50). In addition, the “Intrinsic activity* (relative activities as compared with isoproterenol)” value at human β3 (setting [2]) stood at 62%. The Mortality entry with male ddy mice is given as “none of eight animals were found to be dead”.

For the molecule `Cc1[nH]c2cc(OCCNC[C@H](O)c3cccc(NS(C)(=O)=O)c3)ccc2c1C.Cl` [Example 11, (R)-N-[3-[2-[2-(2,3-dimethyl-1H-indol-6-yloxy)ethylamino]-1-hydroxyethyl]phenyl]methanesulfonamide hydrochloride], a half-maximal effect on human β3 (EC50) was put at 4.8 nM. Also, the Emax on human β3 (setting [2]) is 80%. Besides, the “Increase of thermogenesis as compared with the control group” value (shortened to “Increase of thermogenesis”) in data set [1] is reported as 17%.

`Cc1[nH]c2cc(OCCNC[C@H](O)c3ccc(Cl)c(NS(C)(=O)=O)c3)ccc2c1C.Cl` [Example 10, (R)-N-[5-[2-[2-(2,3-dimethyl-1H-indol-6-yloxy)ethylamino]-1-hydroxyethyl]-2-chlorophenyl]methanesulfonamide hydrochloride]: on human β3, the EC50 (in general, the concentration that produces a half-maximal response) was found to be 4.5 nM. The Emax at human β3 (setting [2]) is 78%. In addition, the “Increase of thermogenesis” value in data set [1] is 15%. Also, in the data set on male ddy mice, the Mortality entry was “none of eight animals were found to be dead”.

Regarding `Cc1[nH]c2cc(OCCNCC(O)c3cccc(NS(C)(=O)=O)c3)ccc2c1C.O=C(O)C(F)(F)F` (stereo not shown) [Example 3, N-[3-[2-[2-(2,3-dimethyl-1H-indol-6-yloxy)ethylamino]-1-hydroxyethyl]phenyl]methanesulfonamide trifluoroacetate], on human β3, the EC50 is 8.7 nM. In addition, the Emax on human β3 (setting [2]) stood at 100%. Besides, the Mortality result in the data set with male ddy mice is “none of eight animals were found to be dead”.

Consider `Cc1c(-c2ccccc2)[nH]c2cc(OCCNC[C@H](O)c3cccc(NS(C)(=O)=O)c3)ccc12.Cl` [Example 13, (R)-N-[3-[2-[2-(3-methyl-2-phenyl-1H-indol-6-yloxy)ethylamino]-1-hydroxyethyl]phenyl]methanesulfonamide hydrochloride], for which the EC50 on human β3 came out at 14 nM. Further, at human β3 (setting [2]), the Emax was 96%. In addition, in data set [1], the “Increase of thermogenesis” value is given as 15%.

Take `Cc1c(-c2ccccc2)[nH]c2cc(OCCNC[C@H](O)c3ccc(Cl)c(NS(C)(=O)=O)c3)ccc12` [Example 17, (R)-N-[5-[2-[2-(3-methyl-2-phenyl-1H-indol-6-yloxy)ethylamino]-1-hydroxyethyl]-2-chlorophenyl]methanesulfonamide hydrochloride]: the midpoint of the response on human β3, the EC50, lay at 4.4 nM. The Emax at human β3 (setting [2]) amounted to 94%.

Take `CNS(=O)(=O)c1cc([C@@H](O)CNCCOc2ccc3c(C)c(C)[nH]c3c2)ccc1O` [Example 12, N-methyl-(R)-[5-[2-[2-(2,3-dimethyl-1H-indol-6-yloxy)ethylamino]-1-hydroxyethyl]-2-hydroxy]benzenesulfonamide hydrochloride]: a half-maximal response at human β3 (EC50) required 5.3 nM. Also, the Emax at human β3 (setting [2]) is 71%.

For the molecule `Cc1[nH]c2cc(OCCNCC(O)c3ccc(Cl)c(NS(C)(=O)=O)c3)ccc2c1C` (stereo not shown) [Example 4, N-[5-[2-[2-(2,3-dimethyl-1H-indol-6-yloxy)ethylamino]-1-hydroxyethyl]-2-chlorophenyl]methanesulfonamide trifluoroacetate], a half-maximal response at human β3 (EC50) required 10 nM. Also, the Emax on human β3 (setting [2]) came to 73%.
